Test results as given in publication PMC8070256, “Feasibility of Developing Radiotracers for MDM2: Synthesis and Preliminary Evaluation of an ^18F-Labeled Analogue of the MDM2 Inhibitor SP-141” (Pharmaceuticals, 2021).
Values joined by “and” are separate entries in the source; they are usually repeats but may differ in a detail not shown here. Equal entries are not always repeated.

Experiments:
HepG2 cells = assay: Cell uptake of [^18F]1 in HepG2 cells after 21 h pretreatment; assay type: cell-based, human; conditions: vehicle-treated HepG2 cells, 1 h uptake
Method: The ability of [^18F]1 to bind to MDM2 expressing human tumor cells was assessed using two wild-type p53 cell lines, MCF-7 breast adenocarcinoma, and HepG2 hepatocellular carcinoma. These cell lines have significant MDM2 expression levels and have been utilized previously for assessing potential MDM2 inhibitors, including SP-141 [12, 24, 25]. […] Thus, to examine the uptake and specificity of [^18F]1 by MDM2 expressing tumor cell lines, MCF-7 and HepG2 cells were treated with 0, 1, 5, or 10 µM SP-141 for 21 h, and then assessed for [^18F]1 uptake for 1 h.
Cell uptake studies of [^18F]1 were conducted using MCF-7 and HepG2 cell lines. […] Next, the incubation medium was removed, cells were rinsed with cold PBS (3 × 0.5 mL) and lysed using Cell Culture Lysis Reagent (0.25 mL, Promega Corporation, Madison, WI, USA) followed by a rinse with PBS (0.125 mL/well). For each well, the supernatant, PBS washes, and the cell lysate were measured for radioactivity in an automated gamma counter (Wallac Wizard™, Perkin Elmer, Waltham, MA, USA). Subsequently, cell lysates were analyzed for protein concentration using the Bradford assay (Bio-Rad, Hercules, CA, USA). Cell uptake for each well was normalized to its protein content and expressed as % uptake/mg protein. Results are presented as mean ± SD for three wells.

[1] = test system: athymic mice bearing HepG2 xenografts; assay: Tissue distribution studies in HepG2 xenografts; assay type: in vivo
Method: Based on the promising results obtained with [^18F]1 in vitro, tissue distribution studies were conducted in athymic mice bearing subcutaneous HepG2 tumor xenografts. HepG2 tumor model was selected because of the higher uptake of [^18F]1 in HepG2 cells and a substantial increase in the uptake in response to co-incubation with 100 µM SP-141, compared to that in MCF-7 cells (Figure 5). Groups of five mice were injected intravenously with [^18F]1 and euthanized at 0.5, 1, or 2 h post injection to determine the tissue distribution of [^18F]1. A separate group of animals (n = 4) were injected intraperitoneally with SP-141 (1.2 mg per mouse; ~140 µM) 30 min before [^18F]1 injection to assess the specificity of tracer uptake in tumors. […] At 30 min post injection, radioactivity levels in most organs were ≥3 %ID/g and decreased to ~2 %ID/g by 2 h.
All animal experiments were conducted in accordance with the regulations of the Duke University Institutional Animal Care and Use Committee (IACUC) under an IACUC-approved protocol. Tissue distribution studies were conducted in mice bearing subcutaneous HepG2 tumor xenografts. To generate the tumor model, male athymic mice (Jackson Labs, Farmington, CT, USA) were injected with 5 × 10^6 HepG2 cells suspended in DMEM and Matrigel (Corning®, Corning, NY, USA, 1:1, 100 µL) in the flank; tissue distribution studies were initiated when the tumor volume reached 200 mm^3. For these studies, groups of five mice were injected with [^18F]1 by the intravenous route and euthanized at 0.5, 1, or 2 h post injection (n = 5 per time point) to assess the tissue distribution of [^18F]1 as described previously. A separate group of animals (n = 4) was injected with SP-141 (1.2 mg per mouse; ~140 µM) by intraperitoneal injection 30 min before [^18F]1 injection to assess the specificity of tracer uptake. The concentration of ^18F activity was calculated as the percentage injected dose per gram tissue (%ID/g).

[2] = Lipophilicity, shake-flask partitioning between PBS (pH 7.4) and n-octanol; assay type: physicochemical; conditions: PBS (pH 7.4) / n-octanol, read-out: log D7.4
Method: The lipophilicity of [^18F]1 was determined by its partitioning between PBS (pH 7.4) and n-octanol by the shake-flask method as previously described.
An aliquot of [^18F]1 (0.37 MBq) was added to a mixture of PBS (pH 7.4) and n-octanol (2 mL each, n = 3) in polypropylene tubes. The mixture was vortexed for one minute, and the organic phase was separated by centrifugation (3000 rpm, 5 min). Next, aliquots of octanol (50 µL) and PBS (500 µL) were collected from each tube into preweighed Eppendorf® tubes and measured for radioactivity in an automated gamma counter (Wallac Wizard™, Perkin Elmer, Waltham, MA, USA). Samples were weighed, and the weights were converted to volume according to solvent density. The partition coefficient value was calculated as the ratio of radioactivity (counts per minute (CPM)/mL) in octanol to that in the aqueous phase.

[3] = 1 h Block: SP-141 (1.2 mg) i.p. 30 min before i.v. [^18F]1

## [18F]CCOc1ccc2[nH]c3c(-c4cccc5ccccc45)nccc3c2c1 [[^18F]1]
HepG2 cells
  [^18F]1 uptake, baseline: 67.5 %/mg protein and ~ 68 %/mg protein
[1]; 30 min post i.v. injection
  Biodistribution, Blood: 4.2 ± 0.6 %ID/g
  Biodistribution, Bone: 3.1 ± 0.6 %ID/g
  Biodistribution, Brain: 2.9 ± 0.8 %ID/g
  Biodistribution, Heart: 4.1 ± 0.7 %ID/g
  Biodistribution, Kidneys: 3.7 ± 0.8 %ID/g
  Biodistribution, Large Intestine: 6.1 ± 1.7 %ID/g
  Biodistribution, Liver: 3.2 ± 0.5 %ID/g
  Biodistribution, Lungs: 3.9 ± 0.6 %ID/g
  Biodistribution, Muscle: 3.5 ± 0.8 %ID/g
  Biodistribution, Skin: 3.7 ± 0.7 %ID/g
  Biodistribution, Small Intestine: 3.9 ± 1.0 %ID/g
  Biodistribution, Spleen: 3.3 ± 0.4 %ID/g
  Biodistribution, Stomach: 5.1 ± 2.0 %ID/g
  Biodistribution, Tumor (HepG2 xenograft): 3.3 ± 0.3 %ID/g
[1]; [3]
  Biodistribution, Blood: 2.7 ± 0.9 %ID/g
  Biodistribution, Bone: 1.9 ± 0.4 %ID/g
  Biodistribution, Brain: 3.3 ± 0.5 %ID/g
  Biodistribution, Heart: 3.7 ± 0.3 %ID/g
  Biodistribution, Kidneys: 3.8 ± 0.4 %ID/g
  Biodistribution, Large Intestine: 3.4 ± 1.4 %ID/g
  Biodistribution, Liver: 3.3 ± 0.6 %ID/g
  Biodistribution, Lungs: 3.5 ± 0.8 %ID/g
  Biodistribution, Muscle: 3.3 ± 0.4 %ID/g
  Biodistribution, Skin: 3.0 ± 0.7 %ID/g
  Biodistribution, Small Intestine: 4.1 ± 0.3 %ID/g
  Biodistribution, Spleen: 3.0 ± 0.6 %ID/g
  Biodistribution, Stomach: 1.6 ± 1.2 %ID/g
  Biodistribution, Tumor (HepG2 xenograft): 3.2 ± 0.7 %ID/g
[1]; 1 h post i.v. injection
  Biodistribution, Blood: 4.1 ± 0.6 %ID/g
  Biodistribution, Bone: 3.6 ± 1.0 %ID/g
  Biodistribution, Brain: 2.6 ± 0.8 %ID/g
  Biodistribution, Heart: 4.0 ± 0.7 %ID/g
  Biodistribution, Kidneys: 3.3 ± 0.6 %ID/g
  Biodistribution, Large Intestine: 7.7 ± 1.8 %ID/g
  Biodistribution, Liver: 2.8 ± 0.4 %ID/g
  Biodistribution, Lungs: 3.8 ± 0.7 %ID/g
  Biodistribution, Muscle: 2.6 ± 0.6 %ID/g
  Biodistribution, Skin: 3.4 ± 0.5 %ID/g
  Biodistribution, Small Intestine: 4.0 ± 0.7 %ID/g
  Biodistribution, Spleen: 2.7 ± 0.7 %ID/g
  Biodistribution, Stomach: 2.7 ± 0.8 %ID/g
  Biodistribution, Tumor (HepG2 xenograft): 3.0 ± 0.7 %ID/g
[1]; 2 h post i.v. injection
  Biodistribution, Blood: 3.3 ± 0.8 %ID/g
  Biodistribution, Bone: 5.4 ± 0.8 %ID/g
  Biodistribution, Brain: 2.0 ± 0.7 %ID/g
  Biodistribution, Heart: 3.3 ± 0.9 %ID/g
  Biodistribution, Kidneys: 2.4 ± 0.6 %ID/g
  Biodistribution, Large Intestine: 7.1 ± 2.9 %ID/g
  Biodistribution, Liver: 2.4 ± 0.5 %ID/g
  Biodistribution, Lungs: 2.1 ± 0.8 %ID/g
  Biodistribution, Muscle: 2.6 ± 0.7 %ID/g
  Biodistribution, Skin: 3.1 ± 0.4 %ID/g
  Biodistribution, Small Intestine: 3.0 ± 0.5 %ID/g
  Biodistribution, Spleen: 2.1 ± 0.4 %ID/g
  Biodistribution, Stomach: 2.1 ± 0.7 %ID/g
  Biodistribution, Tumor (HepG2 xenograft): 3.0 ± 0.8 %ID/g
[1]; 2 h post injection
  Radioactivity levels in most organs / normal tissues: ~ 2 %ID/g and 2–3 %ID/g
  Tumor-to-muscle ratio: 1.14 ± 0.18
  Tumor-to-normal tissue (tumor-to-background) ratios: < 2
[1]; over the 2-h observation period
  Tumor uptake and retention in HepG2 xenografts: ~ 3 %ID/g
[2]
  logD: 2.35 ± 0.19
